Like-named read-outs stand apart in the source and are kept apart here.
Columns and labels:
Assay type in all cases: cell-based
Sclerotinia homoeocarpa [1] = test: Radial growth of dollar spot fungus after treatment of plugs in PBS (24 well plates), dark vs light; conditions: for inhibition at 500 µM / inhibition at 1500 µM: Clarireedia homoeocarpa
Experimental: In this example, control of dollar spot fungus (Sclerotinia homoeocarpa) with chlorins combined with a chelating agent was assessed. Treatments were prepared in Phosphate Buffered Saline (PBS) in 24 well plates (in duplicates for light vs. dark incubation) at desired concentrations. Then, a 5 mm diameter plug of a Sclerotinia homoeocarpa isolate (3 isolates total tested) was inoculated into the PBS and incubated at 21° C. in the dark for 2 hours. After 2 hours, one of the 24 well plates (with isolates in triplicate) is left in the dark and one 24 well plate is placed under illumination for 1 hour (all at 21° C.). Following illumination, fungal plugs are removed from PBS, blotted dry on sterile filter paper and transferred to non-amended Potato Dextrose Agar (PDA). Radial growth of the fungus is monitored daily until the growth of S. homoeocarpa reaches the edge of the Petri-dish. Illumination is provided by LED lights emitting about 1000 μmol/m^2/s photosynthetically active radiation (PAR). In this example, control of dollar spot fungus (Sclerotinia homoeocarpa) with Zinc Protoporphyrin IX (Zn-PPIX) combined with EDTA was assessed. Treatments were prepared in Phosphate Buffered Saline (PBS) in 24 well plates (in duplicates for light vs. dark incubation) at desired concentrations. Then, a 5 mm diameter plug of a Sclerotinia homoeocarpa isolate (3 isolates total tested) was inoculated into the PBS and incubated at 21° C. in the dark for 2 hours. After 2 hours, one of the 24 well plates (with isolates in triplicate) is left in the dark and one 24 well plate is placed under illumination for 1 hour (all at 21° C.). Following illumination, fungal plugs are removed from PBS, blotted dry on sterile filter paper and transferred to non-amended Potato Dextrose Agar (PDA). Radial growth of the fungus is monitored daily until the growth of S. homoeocarpa reaches the edge of the Petri-dish. Illumination is provided by LED lights emitting about 1000 μmol/m^2/s photosynthetically active radiation (PAR). In this example, control of dollar spot fungus (Sclerotinia homoeocarpa) with bacteriochlorin combined with EDTA was assessed. Treatments were prepared in Phosphate Buffered Saline (PBS) in 24 well plates (in duplicates for light vs. dark incubation) at desired concentrations. Then, a 5 mm diameter plug of a Sclerotinia homoeocarpa isolate (3 isolates total tested) was inoculated into the PBS and incubated at 21° C. in the dark for 2 hours. After 2 hours, one of the 24 well plates (with isolates in triplicate) is left in the dark and one 24 well plate is placed under illumination for 1 hour (all at 21° C.). Following illumination, fungal plugs are removed from PBS, blotted dry on sterile filter paper and transferred to non-amended Potato Dextrose Agar (PDA). Radial growth of the fungus is monitored daily until the growth of S. homoeocarpa reaches the edge of the Petri-dish. Illumination is provided by LED lights emitting about 1000 μmol/m^2/s photosynthetically active radiation (PAR). In this example, control of dollar spot fungus (Sclerotinia homoeocarpa) with Aluminum chlorin e6 combined with EDTA was assessed. Treatments were prepared in Phosphate Buffered Saline (PBS) in 24 well plates (in duplicates for light vs. dark incubation) at desired concentrations. Then, a 5 mm diameter plug of a Sclerotinia homoeocarpa isolate (3 isolates total tested) was inoculated into the PBS and incubated at 21° C. in the dark for 2 hours. After 2 hours, one of the 24 well plates (with isolates in triplicate) is left in the dark and one 24 well plate is placed under illumination for 1 hour (all at 21° C.). Following illumination, fungal plugs are removed from PBS, blotted dry on sterile filter paper and transferred to non-amended Potato Dextrose Agar (PDA). Radial growth of the fungus is monitored daily until the growth of S. homoeocarpa reaches the edge of the Petri-dish. Illumination is provided by LED lights emitting about 1000 μmol/m^2/s photosynthetically active radiation (PAR). […]

Sclerotinia homoeocarpa [2] = test: Radial growth of dollar spot fungus on amended Potato Dextrose Agar, dark vs light; conditions: for inhibition at 500 µM / inhibition at 1000 µM: Clarireedia homoeocarpa, read-out: % Inhibition
E. Coli K-12 = test: E. Coli assay under LED lamps, colony count; conditions: Table 13; light; 1 mM Curcumin in 0.25% Tween 80 solution
Experimental: Regarding the E. Coli assay tests in the above examples, the following procedure was used: • 1. E. Coli K-12 inoculated in 5 mL TSB and placed in a shaking incubator overnight. • 2. Dilute culture in 500 mL PBS (˜10̂8 CFU/mL) and placed in shaking incubator for 30 minutes at […]. • 3.15 mL samples created using 12 mL culture and a mixture of PBS buffer and sample compounds. • 4. Placed under LED lamps for 2 hours (40 W/m^2). • 5. Samples diluted to 10^−4 and culture controls diluted to 10^−5 for plating through series dilutions. • 6. 0.1 mL plated of each sample in triplicates on TSA base (10^−3 and 10^−4 for samples. 10^−4 and 10^−5 for controls). • 7. Incubated overnight at 37° C. • 8. Colonies counted next morning and recorded.

[3] = Table 16B, light, Chlorin Rate 5 μM
[4] = Table 16B, light, Chlorin Rate 10 μM
[5] = Table 16B, light, Chlorin Rate 31 μM
[6] = Table 9A, dark, Curcumin 500 μM in 0.25% Tween 80
[7] = Table 9A, dark, Curcumin 1000 μM in 0.25% Tween 80
[8] = Table 9B, light, Curcumin rate 500 μM in 0.25% Tween 80
[9] = Table 9B, light, Curcumin rate 1000 μM in 0.25% Tween 80

C=CC1=C(C)c2cc3[n-]c(cc4[n-]c(cc5nc(cc1n2)C(C)=C5C=C)c(C)c4CCC(=O)O)c(CCC(=O)O)c3C.[Zn+2] [Zn Protoporphyrin IX (PPIX), Zinc Protoporphyrin IX]
% Inhibition (Sclerotinia homoeocarpa [1]; Table 19A, light, rate 10 μM): 7.50%
Mean Radial Growth (Sclerotinia homoeocarpa [1]; Table 19A, light, rate 10 μM): 10.28 mm

C=Cc1c(C)c2cc3nc(c(CC(=O)O)c4[n-]c(cc5nc(cc1[n-]2)C(C)=C5CC)c(C)c4C(=O)O)C(CCC(=O)O)C3C.[Pd+2] (stereo not shown) [PdCe6]
% Inhibition (Sclerotinia homoeocarpa [2]; Table 16A, dark, rate 5 μM): 18.82%
Mean Radial Growth (Sclerotinia homoeocarpa [2]; Table 16A, dark, rate 5 μM): 11.5 mm
% Inhibition (Sclerotinia homoeocarpa [2]; Table 16A, dark, rate 10 μM): 36.47%
Mean Radial Growth (Sclerotinia homoeocarpa [2]; Table 16A, dark, rate 10 μM): 9.0 mm
% Inhibition (Sclerotinia homoeocarpa [2]; Table 16A, dark, rate 31 μM): 42.75%
Mean Radial Growth (Sclerotinia homoeocarpa [2]; Table 16A, dark, rate 31 μM): 8.1 mm
% Inhibition (Sclerotinia homoeocarpa [2]; [3]): 49.3%
Mean Radial Growth (Sclerotinia homoeocarpa [2]; [3]): 6.2 mm
% Inhibition (Sclerotinia homoeocarpa [2]; [4]): 76.9%
Mean Radial Growth (Sclerotinia homoeocarpa [2]; [4]): 2.8 mm
% Inhibition (Sclerotinia homoeocarpa [2]; [5]): 100.0%
Mean Radial Growth (Sclerotinia homoeocarpa [2]; [5]): 0 mm

COc1cc(/C=C/C(=O)CC(=O)/C=C/c2ccc(O)c(OC)c2)ccc1O [Curcumin]
% Inactivation (E. Coli K-12): 86.0%
CFU/mL (E. Coli K-12): 1.24E+06 CFU/mL
LogCFU/mL (E. Coli K-12): 6.09 LogCFU/mL
inhibition at 500 µM (Sclerotinia homoeocarpa [2]; [6]): 11.4%
inhibition at 1000 µM (Sclerotinia homoeocarpa [2]; [7]): 33%
inhibition at 500 µM (Sclerotinia homoeocarpa [2]; [8]): 8.1%
inhibition at 1000 µM (Sclerotinia homoeocarpa [2]; [9]): 28.9%
Mean Radial Growth (Sclerotinia homoeocarpa [2]; [6]): 13.1 mm
Mean Radial Growth (Sclerotinia homoeocarpa [2]; [7]): 9.9 mm
Mean Radial Growth (Sclerotinia homoeocarpa [2]; [8]): 12.4 mm
Mean Radial Growth (Sclerotinia homoeocarpa [2]; [9]): 9.6 mm

C[n+]1ccc(-c2c3nc(c(-c4cc[n+](C)cc4)c4ccc([nH]4)c(-c4cc[n+](C)cc4)c4nc(c(-c5cc[n+](C)cc5)c5ccc2[nH]5)C=C4)C=C3)cc1.Cc1ccc(S(=O)(=O)[O-])cc1.Cc1ccc(S(=O)(=O)[O-])cc1.Cc1ccc(S(=O)(=O)[O-])cc1.Cc1ccc(S(=O)(=O)[O-])cc1 [meso-Tetra (N-methyl-4-pyridyl) porphine tetra tosylate]
% Inhibition (Sclerotinia homoeocarpa [1]; Table 31A, dark, rate 0.1 μM): 4.17%
Mean Radial Growth (Sclerotinia homoeocarpa [1]; Table 31A, dark, rate 0.1 μM): 14.06 mm
% Inhibition (Sclerotinia homoeocarpa [1]; Table 31B, light, rate 0.1 μM): 34.63%
Mean Radial Growth (Sclerotinia homoeocarpa [1]; Table 31B, light, rate 0.1 μM): 8.39 mm

O=C(OC[C@H]1O[C@@H](OC(=O)c2cc(O)c(O)c(OC(=O)c3cc(O)c(O)c(O)c3)c2)[C@H](OC(=O)c2cc(O)c(O)c(OC(=O)c3cc(O)c(O)c(O)c3)c2)[C@@H](OC(=O)c2cc(O)c(O)c(OC(=O)c3cc(O)c(O)c(O)c3)c2)[C@@H]1OC(=O)c1cc(O)c(O)c(OC(=O)c2cc(O)c(O)c(O)c2)c1)c1cc(O)c(O)c(OC(=O)c2cc(O)c(O)c(O)c2)c1 [Tannic acid]
inhibition at 500 µM (Sclerotinia homoeocarpa [1]; Table 25A, dark, rate 500 μM): -6.25%
inhibition at 1500 µM (Sclerotinia homoeocarpa [1]; Table 25A, dark, rate 1500 μM): 7.29%
inhibition at 500 µM (Sclerotinia homoeocarpa [1]; Table 25B, light, rate 500 μM): -9.69%
inhibition at 1500 µM (Sclerotinia homoeocarpa [1]; Table 25B, light, rate 1500 μM): 16.3%
Mean Radial Growth (Sclerotinia homoeocarpa [1]; Table 25A, dark, rate 500 μM): 11.33 mm
Mean Radial Growth (Sclerotinia homoeocarpa [1]; Table 25A, dark, rate 1500 μM): 9.89 mm
Mean Radial Growth (Sclerotinia homoeocarpa [1]; Table 25B, light, rate 500 μM): 11.94 mm
Mean Radial Growth (Sclerotinia homoeocarpa [1]; Table 25B, light, rate 1500 μM): 9.11 mm
